# Columns and labels:
# Ret wt = biological target: T1, Ret wt (Homo sapiens, UniProt P07949); test: HTRF kinase activity test, RET wild type; type: biochemical; details: Table 3; read-out: RET Enzyme (wild type) IC50
# T1 construct: purchased Invitrogen PV3082
# Experimental: This test combined peptide substrates and a single proprietary monoclonal antibody with HTRF technology, which was a highly sensitive and stable technology for detecting molecular interactions of proteins. The enzyme phosphorylates the substrate, then the Eu-labeled antibody binds to the phosphorylated substrate, and streptavidin-XL665 binds to all substrates. The TR-FRET signal was generated by the HTRF principle. […] Based on this, the inhibitory effect was evaluated.
# (§1) The other compounds were diluted 3-fold gradiently with DMSO from the 10 mM stock solution to a total of 10 concentrations respectively.
# (§2) Adding 4 volumes of distilled water to 1 volume of enzyme buffer 5×; 5 mM MgCl2; 1 mM DTT.
# (§3) b) centrifuging the compound plate for 1 minute at 1000 g.
# (§4) c) sealing the test board.
# (§5) f) adding 4 μl of 1× kinase buffer to each well of the test plate, centrifuging the sample plate at 1000 g for 30 seconds, and placing it at room temperature for 10 minutes.
# (§6) g) preparing a solution of 5× TK-substrate-biotin ([…]) in kinase buffer and 5×ATP (50 μM) in kinase buffer respectively.
# (§7) h) starting the reaction by adding 2 μl STK-substrate-biotin and 2 μl ATP (prepared in the step g).
# (§8) i) centrifuging the sample plate for 30 seconds at 1000 g. Sealing the test board and placing it at room temperature for 30 minutes.
# (§9) ) centrifuging at 1000 g for 30 seconds and placing it at room temperature for 1 hour.
# (§10) The inhibition rate % was calculated as follows:
# (§11) Inhibition rate %=[1−(fluorescence signal value of test compound−fluorescence signal value of positive control)/(average ratio of negative control−average ratio of positive control)]*100%
# (§12) Ratio: generated from the measured fluorescence signal value
# (§13) The average ratio of the positive control is the average ratio of the positive control (200 nM AT13148) in the sample plate;
# (§14) The average ratio of negative controls is the average ratio of negative controls (0.1% DMSO) in the sample plate.
# (§15) GraphPad 6.0 was used to fit the logarithm of the % inhibition rate and the compound concentration into a nonlinear regression (dose response−variable slope) to calculate the IC50 value.
# [1] = tested on: RET wild-type, mutant and/or fusion-type; test: Overall statement on RET inhibitory activity (summary of Table 3); details: statement in words summarising Table 3
# Text: As shown in the above table, the example compounds of the present disclosure have improved inhibitory activity against RET wild-type, mutant and/or fusion-type.
# TT Cell = test: Cell inhibitory activity test (CCK8); type: cell-based; details: Table 3, 72 hours incubation
# Experimental: Cell Inhibitory Activity Test
# 1. preparing 90 μl of cell suspension in a 96-well plate with 4000 cells/well. Pre-incubating the culture plate in an incubator for 24 hours (37° C., 5% CO2).
# 2. adding 10 μl of test compounds of different concentrations to each well of cells, and each compound has multiple wells.
# 3. incubating the culture plate in the incubator for 72 hours.
# 4. adding 10 μl of CCK8 solution to each well (be careful not to generate bubbles in the well, otherwise they would affect the reading of the OD value).
# 5. incubating the culture plate in the incubator for 1-2 hours.
# 6. measuring the absorbance at 450 nm with a microplate reader.
# 7. according to the compound concentration and absorbance value, GraphpadPrism software was used to calculate the IC50 of each compound.
# RET (V804M) = biological target: T2, RET (V804M) (Homo sapiens, UniProt P07949, V804M); test: HTRF kinase activity test, RET V804M; type: biochemical; details: Table 3; read-out: RET Enzyme (V804M) IC50
# T2 construct: purchased Signalchem R02-12GG
# T2 sequence (P07949 29-1114 V804M): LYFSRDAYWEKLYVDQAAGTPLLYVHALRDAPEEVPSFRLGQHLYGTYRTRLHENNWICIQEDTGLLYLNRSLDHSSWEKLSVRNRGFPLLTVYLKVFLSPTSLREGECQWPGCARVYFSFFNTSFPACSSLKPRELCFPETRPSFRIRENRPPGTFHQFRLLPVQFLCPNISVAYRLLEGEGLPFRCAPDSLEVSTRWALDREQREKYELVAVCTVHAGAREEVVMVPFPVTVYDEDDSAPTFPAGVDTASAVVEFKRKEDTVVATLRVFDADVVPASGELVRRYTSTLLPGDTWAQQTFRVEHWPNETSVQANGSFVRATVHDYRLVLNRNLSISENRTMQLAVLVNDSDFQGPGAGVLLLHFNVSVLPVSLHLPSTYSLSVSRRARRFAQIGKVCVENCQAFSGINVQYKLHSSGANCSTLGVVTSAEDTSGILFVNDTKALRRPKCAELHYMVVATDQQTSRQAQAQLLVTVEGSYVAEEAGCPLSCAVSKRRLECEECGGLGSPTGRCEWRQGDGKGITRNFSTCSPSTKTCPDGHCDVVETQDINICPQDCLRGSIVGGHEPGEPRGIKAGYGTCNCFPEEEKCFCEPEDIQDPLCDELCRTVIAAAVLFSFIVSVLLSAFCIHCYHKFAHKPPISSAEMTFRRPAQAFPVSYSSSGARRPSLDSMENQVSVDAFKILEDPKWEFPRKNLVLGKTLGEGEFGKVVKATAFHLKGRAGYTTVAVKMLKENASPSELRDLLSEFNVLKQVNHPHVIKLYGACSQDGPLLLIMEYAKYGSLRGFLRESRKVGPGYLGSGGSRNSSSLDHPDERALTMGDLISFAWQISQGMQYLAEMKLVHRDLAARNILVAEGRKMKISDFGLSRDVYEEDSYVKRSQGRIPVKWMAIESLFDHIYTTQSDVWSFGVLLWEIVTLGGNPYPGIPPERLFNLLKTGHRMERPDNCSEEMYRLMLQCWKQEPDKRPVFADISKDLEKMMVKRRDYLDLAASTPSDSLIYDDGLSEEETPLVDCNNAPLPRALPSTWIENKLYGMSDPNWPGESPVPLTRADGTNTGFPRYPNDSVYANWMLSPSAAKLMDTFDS
# Experimental: This test combined peptide substrates and a single proprietary monoclonal antibody with HTRF technology, which was a highly sensitive and stable technology for detecting molecular interactions of proteins. The enzyme phosphorylates the substrate, then the Eu-labeled antibody binds to the phosphorylated substrate, and streptavidin-XL665 binds to all substrates. The TR-FRET signal was generated by the HTRF principle. Once the inhibitor (test compound) was added, a weaker TR-FRET signal is obtained. Based on this, the inhibitory effect was evaluated.
# as §1, §2
# a) Transferring 10 nl of the compound dilution (prepared in 5.2) to each well of the test plate (784075, Greiner);
# as §3, §4
# d) preparing 5×Ret wt (0.2 ng/μl) and 5×Ret V804L (0.5 ng/μl)/5×Ret V804M (0.5 ng/μl) in 1× kinase buffer respectively.
# e) adding 2 μl of 5×Ret wt or 2 μl of Ret V804L/RET V804M to a 384-well test plate (784075, Greiner).
# as §5, §6, §7, §8
# j) preparing 4×Sa-XL 665 (250 nM) in HTRF detection buffer.
# k) adding 5 μl of Sa-XL 665 and 5 μl of TK-antibody-Cryptate (prepared in the step i) to each well of the test plate.
# as §9
# m) reading the fluorescence signal values at 615 nm (Cryptate) and 665 nm (XL665) on the Envision 2104 plate reader.
# Calculating the ratio of each hole (665 nm/615 nm).
# as §10, §11, §12, §13, §14, §15
# T1 sequence (P07949 29-1114): as the sequence (P07949 29-1114 V804M) above, with M776V counted along it
IC50 (Ret wt),IC50 (RET (V804M)),Compound,"inhibitory activity against RET wild-type, mutant and/or fusion-type [1]",IC50 (TT Cell),"IC50 (TT Cell; Homo sapiens, TT)"
1.7 nM,–,"2-amino-4-(6-(4-((2-fluorobenzyl)piperazine-6-(1-methyl-1H-pyrazol-4-yl)pyrazolo[1,5-a]pyridine-3-carbonitrile [APS015]",excellent activity,27.7 nM,–
1 nM,–,Cn1cc(-c2cc(-c3ccc(N4CCN(Cc5cncc(F)c5)CC4)nc3)c3c(C#N)c(N)nn3c2)cn1 [APS014],excellent activity,–,44.6 nM
1.1 nM,–,Cn1cc(-c2cc(-c3ccc(N4CCN(Cc5cc(F)ccc5F)CC4)nc3)c3c(C#N)c(N)nn3c2)cn1 [APS020],excellent activity,–,14.3 nM
2.2 nM,–,Cc1cccnc1CN1CCN(c2ccc(-c3cc(-c4cnn(C)c4)cn4nc(N)c(C#N)c34)cn2)CC1 [APS022],excellent activity,–,45.5 nM
1 nM,–,"Cn1cc(-c2cc(-c3ccc(N4CCN(Cc5c(F)cccc5F)CC4)nc3)c3c(C#N)c(N)nn3c2)cn1 [APS024, 2-amino-4-(6-(4-(2,6-difluorobenzyl)piperazin-1-yl)pyridin-3-yl)-6-(1-methyl-1H-pyrazole-4-yl)pyrazolo[1,5-a]pyridine-3-carbonitrile]",excellent activity,–,7.1 nM
1.4 nM,–,Cc1ccnc(CN2CCN(c3ccc(-c4cc(-c5cnn(C)c5)cn5nc(N)c(C#N)c45)cn3)CC2)c1 [APS025],excellent activity,–,38.2 nM
1.4 nM,–,"COc1cccc(CN2CCN(c3ccc(-c4cc(-c5cnn(C)c5)cn5nc(N)c(C#N)c45)cn3)CC2)c1 [APS026, 2-amino-4-(6-(4-(3-methoxybenzyl)piperazin-1-yl)pyridin-3-yl)-6-(1-methyl-1H-pyrazole-4-yl)pyrazolo[1,5-a]pyridine-3-carbonitrile]",excellent activity,–,18.1 nM
2.4 nM,–,"Cn1cc(-c2cc(-c3ccc(N4CCN(Cc5ccccc5Cl)CC4)nc3)c3c(C#N)c(N)nn3c2)cn1 [APS027, 2-amino-4-(6-(4-(2-chlorobenzyl)piperazin-1-yl)pyridin-3-yl)-6-(1-methyl-1H-pyrazol-4-yl) pyrazolo[1,5-a]pyridine-3-carbonitrile]",excellent activity,–,85.7 nM
1.7 nM,–,"Cn1cc(-c2cc(-c3ccc(N4CCN(Cc5ccccn5)CC4)nc3)c3c(C#N)c(N)nn3c2)cn1 [APS035, 2-amino-6-(1-methyl-1H-pyrazol-4-yl)-4-(6-(4-(4-(pyridin-2-yl)methyl)piperazin-1-yl)pyridin-3-yl)pyrazolo[1,5-a]pyridine-3-carbonitrile]",excellent activity,–,65.4 nM
–,–,"COc1ccc(CN2CCN(c3ccc(-c4cc(-c5cnn(C)c5)cn5nc(N)c(C#N)c45)cn3)CC2)cn1 [APS068, 2-amino-4-(6-(4-((6-methoxypyridin-3-yl)methyl)piperazin-1-yl)pyridin-3-yl)-6-(1-methyl-1H-pyrazol-4-yl)pyrazolo[1,5-a]pyridine-3-carbonitrile]",excellent activity,–,11.3 nM
–,957 nM,"COc1ccc(CN2C3CC2CN(c2ccc(-c4cc(OCC(C)(C)O)cn5nc(OC)c(C#N)c45)cn2)C3)cn1 [APS091, 6-(2-hydroxy-2-methylpropoxy)-2-methoxy-4-(6-(6-((6-methoxypyridin-3-yl)methyl)-3,6-diazabicyclo[3.1.1]heptan-3-yl)pyridin-3-yl)pyrazolo[1,5-a]pyridine-3-carbonitrile]",–,–,–
2890 nM,1550 nM,COc1ccc(CN2C3CC2CN(c2ccc(-c4cc(OCC(C)(C)O)cn5nc(NC(C)=O)c(C#N)c45)cn2)C3)cn1 [APS093],–,–,–
942 nM,493 nM,"COc1ccc(CN2C3CC2CN(c2ccc(-c4cc(OCC(C)(C)O)cn5nc(NCCO)c(C#N)c45)cn2)C3)cn1 [APS094, 6-(2-Hydroxy-2-methylpropoxy)-2-((2-2-hydroxyethyl)amino)-4-(6-(6-((6-methoxypyridine-3-yl)methyl)-3,6-diazabicyclo[3.1.1]heptan-3-yl)pyridin-3-yl)pyrazolo[1,5-a]pyridine-3-carbonitrile]",–,–,–
122 nM,186 nM,CCOc1cc(-c2ccc(N3CC4CC(C3)N4Cc3ccc(OC)nc3)nc2)c2c(C#N)c(F)nn2c1 [APS096],–,–,–
–,–,CCOc1cc(-c2ccc(N3CCN(Cc4ccc(OC)nc4)CC3)nc2)c2c(C#N)c(N)nn2c1 [APS099],excellent activity,–,16.2 nM
–,–,"COCCOc1cc(-c2ccc(N3CCN(Cc4ccc(OC)nc4)CC3)nc2)c2c(C#N)c(N)nn2c1 [APS100, 2-amino-6-(2-methoxyethoxy)-4-(6-(4-((6-methoxypyridin-3-yl)methyl)piperazin-1-yl)pyridine-3-yl)pyrazolo[1,5-a]pyridine-3-carbonitrile]",excellent activity,–,22.4 nM
–,–,"CCOc1cc(-c2ccc(N3CC4CC(C3)N4Cc3cncc(F)c3)nc2)c2c(C#N)c(N)nn2c1 [APS111, 2-amino-6-ethoxy-4-(6-(6-((5-fluoropyridin-3-yl)methyl)-3,6-diazabicyclo[3.1.1]heptane-3-yl)pyridin-3-yl)pyrazolo[1,5-a]pyridine-3-carbonitrile]",excellent activity,–,6.4 nM
–,–,"COc1ccc(CN2C3CC2CN(c2ccc(-c4cc(OCCOC(C)C)cn5nc(N)c(C#N)c45)cn2)C3)cn1 [APS120, 2-amino-6-(2-isopropoxyethoxy)-4-(6-(6-((6-methoxypyridin-3-yl)methyl)-3,6-diazabicyclo [3.1.1]heptan-3-yl)pyridin-3-yl)pyrazolo[1,5-a]pyridine-3-carbonitrile]",excellent activity,–,16.9 nM

Compound,IC50 (Ret wt),IC50 (RET (V804M)),"inhibitory activity against RET wild-type, mutant and/or fusion-type [1]",IC50 (TT Cell),"IC50 (TT Cell; Homo sapiens, TT)"
Cn1cc(-c2cc(-c3ccc(N4CCN(Cc5cccc(F)c5)CC4)nc3)c3c(C#N)c(N)nn3c2)cn1 [APS019],< 1 nM,–,excellent activity,–,7.8 nM
"Cn1cc(-c2cc(-c3ccc(N4CC5CC(C4)N5Cc4ccccn4)nc3)c3c(C#N)c(N)nn3c2)cn1 [APS038, 2-amino-6-(1-methyl-1H-pyrazol-4-yl)-4-(6-(6-(pyridin-2-yl-methyl)-3,6-diazabicyclo[3.1.1]heptan-3-yl)pyridin-3-yl)pyrazolo[1,5-a]pyridine-3-carbonitrile]",1 nM,–,excellent activity,–,37.7 nM
